Measured values published in patent US7662388B2, “Endogenous peptide and active subfragments thereof” (Innoventus Project AB, priority 2003, dated 2010).

Assays:
[1] = test system: primary BCE cells; test: chemotaxis (migration) assay in modified Boyden chamber, BCE cells; assay type: cell-based, bovine
Experimental: The porcine aortic endothelial (PAE) cell line overexpressing FGF receptor-1 (FGFR-1) (Wennström et al 1992) was cultured in Ham's F12/10% fetal bovine serum (FCS) and NIH 3T3 murine fibroblasts were cultured in Dulbecco's modified medium (DMEM)/10% newborn calf serum (NCS). F12, DMEM and serum were bought from Life Technologies. Primary bovine adrenal cortex capillary endothelial (BCE) cells were cultured on gelatin-coated dishes in DMEM/10% NCS and 2 ng/ml FGF-2 (Boehringer Mannheim). For chemotaxis assays, both PAE and NIH 3T3 cells were serum-starved over night in 0.1% BSA and BCE cells in 0.5% NCS. Human embryonic kidney (HEK) 293-EBNA cells were cultured in DMEM/10% FCS. Approximately every second month they were given 0.25 mg/ml G418 (Calbiochem) to ensure positive selection of the EBNA-1 expressing cells.
A migration assay was performed in a modified Boyden chamber as described earlier (Auerbach et al., 1991) using micropore polycarbonate filters (8 μm thick, 8 μm pore) coated with type-1 collagen solution at 100 μg/ml (Vitrogen 100, Collagen Corp). BCE, PAE/FGFR-1 or NIH 3T3 cells were preincubated or not with HRGP (100 ng/ml) for 30 min, trypsinised and resuspended at a concentration of 7.5×10^5 cells/ml in Dulbecco's modified essential medium (Invitrogen) containing 0.25% BSA and Trasylol at 1000 KIE. FGF-2 and VEGF-A was used at 5 ng/ml, HRGP and the protein C inhibitor (PCI) at 100 ng/ml and BSA at 0.25%. After 5 h at 37° C., migrated cells were stained with Giemsa and counted using an image analysis software (Easy Image Analysis) from Tekno Optik AB, Sweden. All samples were analysed in at least six parallel wells for each treatment.

[2] = test system: chicken chorioallantoic membrane (CAM); test: chicken chorioallantoic membrane (CAM) angiogenesis assay; assay type: in vivo; conditions: FGF-2 or VEGF-A 0.2 mg per filter, HRGP 3 mg per filter, three days
Experimental: The effect of HRGP on anglogenesis was tested in the chicken chorioallantoic membrane (CAM) assay.
The conditions for the chorioallantoic membrane (CAM) assay followed essentially a previously described procedure (Friedlander et al (1995), Dixelius et al, (2000)). FGF-2 (Boehringer Mannheim) and VEGF-A (Peprotech) was used at 0.2 mg per filter and purified pHRGP or rHRGP at 3 mg per filter. The treated CAM's were inspected in a light microscope and the score, from 0 (low) to 3 (high) was based on the number of vessel branch points. Average values for 5-6 embryos were recorded.
A filter disc soaked in vehicle or growth factor, with or without HRGP, was placed on top of the CAM in the vicinity of a large vessel and incubated for three days. Treatment of the CAM with growth factors, such as FGF-2, stimulated angiogenesis (FIG. 1C; Table 1).

[3] = test system: T241 fibrosarcoma tumour vessels; test: CD31 staining and stereological quantification of tumour vascular parameters; assay type: in vivo, mice
Experimental: Paraffin-sections of tumours from control- or HRGP-treated animals were immunohistochemically (IHC) stained for CD31 and Ki67 using a goat anti-mouse CD31 antibody (1506; Santa Cruz), diluted 1:500 and incubated at +4° C. over night, and a rat anti-mouse Ki67 antibody (TEC-3/M7249; DAKO) diluted 1:50 and incubated for 30 min. at room temperature, according to standard IHC procedures. Detection of apoptotic cells by the TUNEL-technique was performed using ApopTag™ (Intergen Company) according to the manufacturer's protocol. Stereological quantification of vascular parameters was performed as described earlier by Weibel et al (1979) and Gundersen et al (1988). Quantification of the relative number of Tunel- and Ki67-positive cells was calculated from approximately 3000 cells per tumour section, in three tumours from each treatment group. Significance at the level of P<0.05 was calculated using Students t-test.
Sections of paraffin-embedded tumours from control (IgG)- or HRGP-treated mice were immunohistochemically stained for CD31 expression to visualise the vessels. […] Stereological quantification of vascular parameters was performed as described earlier by Weibel et al (1979) and Gundersen et al (1988). This method of quantifying tumour angiogenesis relates the length, volume and surface area of the vessels to tumour volume.

[4] = test system: BCE cells; test: endothelial cell adhesion to matrix proteins; assay type: cell-based, bovine; conditions: HRGP 100 ng/ml, serum-free medium, 45 min
Experimental: BCE cells were detached using non-enzymatic “Cell Dissociation Solution” (Sigma), washed and re-suspended in DMEM/0.1% BSA and FGF-2 (2 ng/ml). The cells were seeded in serum-free medium, with or without HRGP (100 ng/ml), into wells pre-coated with BSA, collagen I, collagen IV, laminin-1 or vitronectin, respectively (CytoMatrix ECM 205 kit, Chemicon). The cells were incubated for 45 (collagen I, collagen IV and vitronectin) or 60 minutes (laminin-1), washed three times in PBS and stained with Hoechst 33342 (1 μg/ml; Molecular Probes). The cells were micro-photographed using the 2× objective and the number of attached cells was counted using the “Easy Image Analysis” software (Tekno Optik). Statistical analysis was performed by ANOVA and Tukeys honestly significant difference (HSD) test. The standard deviation is based on the pooled variance.

Q: “HRGP: mature human Histidine Rich Glycoprotein, about 507 amino acid residues” was tested. Which “FCS-induced chemotaxis of BCE cells” value ([1]; 100 ng/ml HRGP) did it give?
A: not inhibited

Q: What about the “VEGF-A-induced chemotaxis of BCE cells” value ([1]; 100 ng/ml HRGP, VEGF-A 5 ng/ml) of the same substance?
A: inhibited

Q: And the “FGF-2-induced chemotaxis of BCE cells” value ([1]; 100 ng/ml protein, FGF-2 5 ng/ml, 5 h)?
A: completely arrested

Q: What about the “growth factor-induced CAM angiogenesis (newly formed vessels)” value [2] of the same substance?
A: effectively inhibited

Q: And the “vessel diameter in tumours, visual inspection of CD31 staining” value ([3]; HRGP-treated vs control)?
A: reduced vessel diameter

Q: And the “vascular parameters (length, volume, surface area of vessels related to tumour volume)” value ([3]; tumours from HRGP-treated vs IgG-treated mice)?
A: all six vascular parameters determined were reduced

Q: What about the “endothelial cell adhesion to vitronectin, collagen I and collagen IV” value [4] of the same substance?
A: decreases endothelial cell adhesion
